Data on 2 molecules can be found in US20090062189A1, “TUMOR SUPPRESSOR PROTEIN AND NUCLEOTIDE ENCODING SAME” (priority 2006, published 2009).

One assay relates to 22Rv1 cells. Nature of the assay: Immunoblotting of PDZD2 in cell lysates and sPDZD2 in conditioned media with anti-PDZD2 antibody. It is filed as cell-based, human. As to conditions: 10 μM Z-DEVD-FMK, 48 hours, compared to Z-FA-FMK-treated cells. The source says:
(§1) Given that cleavage of pro-IL-16 to form the corresponding secretory IL-16 cytokine is mediated by caspase-3, we tested whether or not proteolytic cleavage of full-length PDZD2 to its secreted protein sPDZD2 is caspase-3-dependent in human prostate, breast and liver cancer cells. Human prostate cancer cell lines LNCaP.FGC (CRL-1740), DUI45 (HTB-81), PC-3 (CRL-1435), and 22Rv1 (CRL-2505), breast adenocarcinoma cell line MCF-7 (HTB-22), and hepatocellular carcinoma cell line Hep-G2 (HB-8065) were obtained from American Type Culture Collection. […] Cell lysates in sample buffer (0.2% SDS, 10% glycerol, 0.06 M Tris-HCl (pH 6.8), 100 mM DTT, and 0.01% bromophenol blue) were heated at 95° C. for 5 min. Proteins in the conditioned media were concentrated by 50-fold using YM-10 Centricons (Millipore). Samples (10 μg) were resolved by SDS-PAGE and electroblotted to PVDF membranes (Millipore). The blots were blocked with 5% non-fat milk powder in TBS-T for 1 hour at room temperature and then incubated with rabbit anti-PDZD2 antibody (1: 10,000 dilution) overnight at 4° C. After washing with TBS-T, the blots were incubated with secondary antibodies against rabbit immunoglobulin G (ZYMED Laboratories). Blots were stripped in 25 mM glycine buffer (pH 2.0) for 30 min for re-probing with α-tubulin (1:500 dilution, Santa Cruz Biotechnology). The signals were visualized by enhanced chemiluminescence Western blotting system (Amersham Biosciences) and densitometric scannings of films of the developed blot normalized against α-tubulin were determined.
(A western blot detects proteins with antibodies after separation by electrophoresis.)

The test system of a further assay is DU145 cells. Described as above. Format: cell-based, human. Conditions: 10 μM Z-DEVD-FMK, 48 hours, compared to Z-FA-FMK-treated cells.
From the text: as §1

Another assay concerns Hep-G2 cells. Described as above. It is filed as cell-based, human. Conditions: 10 μM Z-DEVD-FMK, 48 hours, compared to Z-FA-FMK-treated cells.
From the text: as §1

The next assay has as its system MCF-7 cells. The description is as above. It is filed as cell-based, human. As to conditions: 10 μM Z-DEVD-FMK, 48 hours, compared to Z-FA-FMK-treated cells.
From the text: as §1

In a further assay the test system is PC-3 cells. Described as above. Format: cell-based, human. As to conditions: 10 μM Z-DEVD-FMK, 48 hours, compared to Z-FA-FMK-treated cells.
From the text: as §1

The target in assay [1] is T1, PDZ domain-containing protein 2 (PDZD2), full-length, human (human) (UniProt O15018).
T1 sequence: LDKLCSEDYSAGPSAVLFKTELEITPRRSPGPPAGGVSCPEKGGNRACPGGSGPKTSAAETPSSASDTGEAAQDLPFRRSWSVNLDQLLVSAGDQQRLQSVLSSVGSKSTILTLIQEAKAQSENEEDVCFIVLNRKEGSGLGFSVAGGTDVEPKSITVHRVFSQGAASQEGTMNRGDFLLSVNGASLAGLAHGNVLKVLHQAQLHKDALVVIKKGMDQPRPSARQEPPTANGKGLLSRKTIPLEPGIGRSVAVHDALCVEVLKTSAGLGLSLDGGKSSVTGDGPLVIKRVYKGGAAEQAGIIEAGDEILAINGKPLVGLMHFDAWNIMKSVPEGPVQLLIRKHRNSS
Nature of the assay: cell-based or functional assay.

Z-DEVD-FMK: the “increase of PDZD2 expression” value is 4.4 fold with 22Rv1 cells; 3 fold in the assay with DU145 cells; 4.1 fold in the assay on Hep-G2 cells; 3.5 fold in the assay on MCF-7 cells; 2 fold in the assay on PC-3 cells. Moreover, the “reduction of sPDZD2 secretion into conditioned media” value with 22Rv1 cells (serum-free) is reported as 44%; with DU145 cells (serum-free), 40%; with Hep-G2 cells (serum-free), 52%; in the assay with MCF-7 cells (serum-free) it was 57%; in the assay on PC-3 cells (serum-free), 28%.

B1: caspase-3 (enzyme, human, UniProt P42574 29-277, looked up)
chain: SGISLDNSYKMDYPEMGLCIIINNKNFHKSTGMTSRSGTDVDAANLRETFRNLKYEVRNKNDLTREEIVELMRDVSKEDHSKRSSFVCVLLSHGEEGIIFGTNGPVDLKKITNFFRGDRCRSLTGKPKLFIIQACRGTELDCGIETDSGVDDDMACHKIPVEADFLYAYSTAPGYYSWRNSKDGSWFIQSLCAMLKQYADKLEFMHILTRVNRKVATEFESFSFDATFHAKKQIPCIVSMLTKELYFYH
For B1, in assay [1], the increase of full-length PDZD2 in cell lysate, 22Rv1 cells, 10 µM Z-DEVD-FMK 48 h vs Z-FA-FMK worked out at 4.4 fold; the increase of full-length PDZD2 in cell lysate, DU145 cells, 10 µM Z-DEVD-FMK 48 h vs Z-FA-FMK is 3 fold; the increase of full-length PDZD2 in cell lysate, Hep-G2 cells, 10 µM Z-DEVD-FMK 48 h vs Z-FA-FMK turned out to be 4.1 fold; the increase of full-length PDZD2 in cell lysate, MCF-7 cells, 10 µM Z-DEVD-FMK 48 h vs Z-FA-FMK amounted to 3.5 fold. Also, in assay [1], the increase of full-length PDZD2 in cell lysate, PC-3 cells, 10 µM Z-DEVD-FMK 48 h vs Z-FA-FMK amounted to 2 fold; the reduction of sPDZD2 secretion into conditioned medium, 22Rv1 cells, 10 µM Z-DEVD-FMK 48 h vs Z-FA-FMK stood at 44%; the reduction of sPDZD2 secretion into conditioned medium, DU145 cells, 10 µM Z-DEVD-FMK 48 h vs Z-FA-FMK was 40%; the reduction of sPDZD2 secretion into conditioned medium, Hep-G2 cells, 10 µM Z-DEVD-FMK 48 h vs Z-FA-FMK is 52%. For the same molecule, in assay [1], the reduction of sPDZD2 secretion into conditioned medium, MCF-7 cells, 10 µM Z-DEVD-FMK 48 h vs Z-FA-FMK was determined as 57% and the reduction of sPDZD2 secretion into conditioned medium, PC-3 cells, 10 µM Z-DEVD-FMK 48 h vs Z-FA-FMK is 28%.
